Measured values published in patent US11578140B2, “Immunoassay for mitragynine” (MICROGENICS CORPORATION, priority 2019, dated 2023).

Tested on: anti-mitragynine antibody
Test: Cross reactivity of the anti-mitragynine antibody against kratom alkaloids and mitragynine metabolites
Assay type: binding, Balb/c mice
Settings: for Cross Reactivity (%): tested concentration (ng/mL): Mitragynine 50, 7-hydroxy mitragynine 35,000-40,000, Paynantheine 25,000-35,000, Speciociliatine 25,000-35,000, 16-carboxy mitragynine 300-360, 9-Hydroxycorynantheidine 3,125-4,000; for cross reactivity (in words): metabolites of mitragynine, antibody derived from the BSA immunogen
Method: In a particular embodiment of the invention, the BSA-containing immunogen of Example 4 (Compound 6) was administered to Balb/c mice in a series of injections as is routine in the art. Alternatively, other mammals are suitable for antibody production. Screening of anti-serum samples taken from the immunized mice was performed to assess antibody titer and to evaluate the ability of antibodies in the samples to bind to enzyme-donor conjugate described in Example 6.
In particular, β-galactosidase enzyme donor polypeptide fragment combines with a β-galactosidase enzyme acceptor fragment to form active β-galactosidase enzyme. The active enzyme complex is capable of transforming a substrate into a product that is differentially detectable. Usually, the product is a different color from the substrate and is quantified using spectrophotometric methods. […] Therefore, the enzyme-catalyzed reaction rate is directly proportional to the concentration of target analyte present in the specimen tested. A preferred β-galactosidase enzyme donor is ED28, a polypeptide containing residues 6-45 of β-galactosidase, with cysteines at positions 1 and 46 (relative to the numbering of the original β-galactosidase fragment).
The cross reactivity of the anti-mitragynine antibody derived from the immunogen described above was tested against certain kratom alkaloids and metabolites of mitragynine shown below.

For `CC[C@@H]1CN2CC[C@@]3(O)C(=Nc4cccc(OC)c43)[C@@H]2C[C@@H]1/C(=C\OC)C(=O)OC` [7-hydroxy mitragynine], the “Cross Reactivity (%)” value was ≤0.2%.
For `CC[C@@H]1CN2CCc3c([nH]c4cccc(O)c34)[C@@H]2C[C@@H]1/C(=C\OC)C(=O)OC` [9-Hydroxycorynantheidine, (E)-2-[(25,35,12b5)-3-ethyl-8-hydroxy-1,2,3,4,6,7,12,12b-octahydroindolo [2,3-a]quinozilizin-2-yl]-3-methoxy propenoic acid methyl ester], the “cross reactivity (in words)” value was “low levels of cross reactivity” and the “Cross Reactivity (%)” value was 1.25-1.6%.
`CC[C@@H]1CN2CCc3c([nH]c4cccc(OC)c34)[C@@H]2C[C@@H]1/C(=C\OC)C(=O)O` [16-carboxy mitragynine] was tested, and the “cross reactivity (in words)” value was “low levels of cross reactivity” and the “Cross Reactivity (%)” value was 13.9-16.7%.
With `CC[C@@H]1CN2CCc3c([nH]c4cccc(OC)c34)[C@@H]2C[C@@H]1/C(=C\OC)C(=O)OC` [Mitragynine, methyl (E)-2-[(2S,3S,12bS)-3-ethyl-8-methoxy-1,2,3,4,6,7,12,12b-octahydroindolo[2,3-a]quinolizin-2-yl]-3-methoxyprop-2-enoate] the “Cross Reactivity (%)” value was 100%.
`C=C[C@H]1CN2CCc3c([nH]c4cccc(OC)c34)[C@@H]2C[C@@H]1/C(=C\OC)C(=O)OC` [Paynantheine] was tested, and the “Cross Reactivity (%)” value was ≤0.2%.
`CC[C@@H]1CN2CCc3c([nH]c4cccc(OC)c34)[C@H]2C[C@@H]1/C(=C\OC)C(=O)OC` [Speciociliatine] was tested, and the “Cross Reactivity (%)” value was ≤0.2%.
